Assay in all cases: inhibition of tumour cell growth, NCI panel, 48 h
Experiment [1] has as its system UACC-62.
The subject of experiment [2] is UACC-257.
In experiment [3] the test system is SN12C.
Experiment [4] has as its system CAKI-1.
The test system of experiment [5] is SW-620.
For experiment [6], the system named is SK-MEL-28.
Experiment [7] deals with CCRF-CEM.
In experiment [8] the test system is M14.
In experiment [9] the test system is SK-OV-3.
The subject of experiment [10] is HCT-15.
For experiment [11], the system named is A549.
Experiment [12] concerns NCI-H226.
The test system of experiment [13] is OVCAR-5.
Experiment [14] relates to SNB-75.
Experiment [15] relates to SR.
In experiment [16] the test system is RPMI-8226.

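96-well plates; 48 h exposure; 5 concentrations. Endpoints by linear interpolation between flanking doses. Not reached: highest tested concentration assigned. GI50 is the concentration that inhibits growth by half.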 Active and inactive are the calls of the source. Cut-off read from the data, not from the text of the source: active = GI50 up to about 1.1 µM and inactive = higher.

For `CCCCN(CCCC)C(=O)C(=O)C(C(=O)c1ccc(OC)cc1)c1ccc(OC)cc1` (centres undefined), the GI50 was 56.4 µM (inactive) in [1]; > 100 µM (inactive) in experiment [2]; > 100 µM (inactive) in experiment [3]; > 100 µM (inactive) in [4]; > 100 µM (inactive) in experiment [5]; > 100 µM (inactive) in experiment [6]. Further, the GI50 in [7] is > 100 µM (inactive); in experiment [8], 92.3 µM (inactive); in experiment [9], > 100 µM (inactive); in experiment [10], above 100 µM; in [11] it was > 100 µM (inactive); in [12], > 100 µM (inactive). For the same compound, the GI50 in experiment [13] is > 100 µM (inactive).
Take `O=C1CCCC/C1=C\c1ccc(Cl)c(Cl)c1`: the GI50 in experiment [1] is 23.4 µM (inactive); in experiment [3], 16.6 µM (inactive); in experiment [4], 19.2 µM (inactive); in [5], 21.6 µM (inactive); in experiment [6] it was 19.1 µM (inactive); in experiment [7] it was 21.3 µM (inactive). The GI50 in [8] is 19.9 µM (inactive); in [14], 16.3 µM (inactive); in experiment [9] it was 45.8 µM (inactive); in experiment [10] it was 19.1 µM; in experiment [11], 34.4 µM (inactive).
In the case of `COc1ccc(Sc2ccccc2[N+](=O)[O-])cc1`, the GI50 in [1] was 7.87 µM (inactive); in [2] it was 36.9 µM (inactive); in experiment [15], 17.1 µM (inactive); in experiment [3], 21.2 µM (inactive); in experiment [5], 3.65 µM (inactive); in experiment [6], 5.28 µM (inactive). Further, the GI50 in [16] was 25.5 µM (inactive); in experiment [7], 22.8 µM (inactive); in [8] it was 4.04 µM (inactive); in experiment [14], 3.67 µM (inactive); in [9], 39.1 µM (inactive); in [10] it was 5.86 µM. Further, the figures for the GI50 in experiment [11], in [12] and in [13] were 15.2 µM (inactive), 13 µM (inactive) and > 100 µM (inactive), respectively.
With `NC(=O)c1ncn(Cc2ccccc2)c1CNC(N)=S`, the GI50 in experiment [1], in [15], in experiment [3], in [5], in experiment [6] and in [16] was > 100 µM (inactive) in each case. Moreover, the GI50 in [7] is > 100 µM (inactive); in [8], > 100 µM (inactive); in experiment [14], 91.4 µM (inactive); in experiment [9], > 100 µM (inactive); in [10] it was above 100 µM; in experiment [11] it was > 100 µM (inactive). For the same compound, the GI50 in experiment [12] and in experiment [13] was > 100 µM (inactive) each time.
Consider `O=C(CCC(=O)Nc1ccc(Cl)c(Cl)c1)CC(=O)c1ccc2ccccc2c1`, for which the GI50 in experiment [1] is 17.2 µM (inactive); in [2] it was > 100 µM (inactive); in experiment [3] it was > 100 µM (inactive); in [4] it was 83 µM (inactive); in [5] it was > 100 µM (inactive); in experiment [6], > 100 µM (inactive). Moreover, the GI50 was 39.8 µM (inactive) in experiment [16]; > 100 µM (inactive) in [7]; > 100 µM (inactive) in experiment [8]; 26.3 µM (inactive) in experiment [14]; 39.8 µM in [10]; > 100 µM (inactive) in experiment [11]. For the same compound, the GI50 in [12] and in experiment [13] was > 100 µM (inactive) each time.
Turning to `COc1ccc(C(c2ccccc2)(c2ccc(OC)cc2)N2C(=O)NC3C(CCCCC(=O)NCCCCCCOP(OCCC#N)N(C(C)C)C(C)C)SCC32)cc1` (centres undefined), the GI50 in [1] was 10.9 µM (inactive); in experiment [2], 19.3 µM (inactive); in experiment [15], 8.07 µM (inactive); in [5], 19.8 µM (inactive); in experiment [6], 15 µM (inactive); in experiment [16], 8.34 µM (inactive). The GI50 in [7] was 9.12 µM (inactive); in experiment [8], 18.4 µM (inactive); in [9], > 10 µM (inactive); in experiment [10], 18 µM; in experiment [11] it was 20.3 µM (inactive); in experiment [12], 15 µM (inactive). The GI50 in [13] is > 10 µM (inactive).
Turning to `CC(C)(C)C(=O)OCC1CCC(n2cnc3c(=O)[nH]c(N)nc32)O1` (centres undefined), the GI50 in [1], in experiment [2], in [3], in experiment [4], in experiment [5] and in experiment [6] was > 100 µM (inactive) throughout. For the same compound, the GI50 was > 100 µM (inactive) in experiment [16]; > 100 µM (inactive) in [7]; > 100 µM (inactive) in experiment [8]; 40 µM (inactive) in experiment [14]; > 100 µM (inactive) in experiment [9]; above 100 µM in experiment [10]. Further, the GI50 in experiment [11], in experiment [12] and in [13] was > 100 µM (inactive) each time.
In the case of `O=C(CC(=O)N1N=C(c2ccccc2)C(/N=N/c2ccccc2Cl)C1=O)Nc1ccccc1Cl` (centres undefined), the GI50 in [1] is 37.7 µM (inactive); in [2], 48.4 µM (inactive); in [15] it was 19.3 µM (inactive); in [3] it was 58.5 µM (inactive); in experiment [4], 30.8 µM (inactive); in [5], 29.9 µM (inactive). Further, the GI50 was 44.3 µM (inactive) in experiment [6]; 17.3 µM (inactive) in experiment [16]; 37.9 µM (inactive) in [8]; 21.1 µM (inactive) in experiment [14]; 28.6 µM (inactive) in [9]; 40.1 µM in experiment [10]. The GI50 in experiment [11] is 21.4 µM (inactive); in experiment [12], 42.7 µM (inactive); in [13], > 100 µM (inactive).
For `C[C@]12CCc3nonc3C1CC[C@@H]1C2CC[C@]2(C)C(=O)CCC12` (some centres undefined), the GI50 in experiment [1] was 21.7 µM (inactive); in [2], > 10 µM (inactive); in [3] it was 35.1 µM (inactive); in [4], 14.8 µM (inactive); in [5] it was 40.1 µM (inactive); in experiment [6] it was > 10 µM (inactive). Besides, the GI50 in experiment [16] was 17.5 µM (inactive); in experiment [7] it was 24.1 µM (inactive); in experiment [8] it was 64.9 µM (inactive); in [14] it was 28.8 µM (inactive); in experiment [9], 33 µM (inactive); in [10] it was 31.2 µM. The GI50 in experiment [11] is 25.8 µM (inactive); in experiment [12], 76.9 µM (inactive); in experiment [13], > 100 µM (inactive).
Take `COc1cccc2c1C(=O)c1c(O)c3c(c(O)c1C2=O)C[C@](O)(C(=O)CO)CC3OC1CC(N)C(OC2CCCCO2)C(C)O1` (some centres undefined): the GI50 in experiment [1] was 0.208 µM (active); in experiment [2] it was 0.995 µM (active); in experiment [3], 0.148 µM (active); in experiment [4] it was 0.0353 µM (active); in [5], 0.0598 µM (active); in experiment [6] it was 1.4 µM (inactive). The GI50 in [16] is 0.112 µM (active); in experiment [7], < 0.0375 µM (active); in [14] it was 0.243 µM (active); in experiment [9], 0.531 µM (active); in experiment [10] it was 0.47 µM; in experiment [11] it was < 0.01 µM (active). Moreover, the GI50 in [12] was 0.0805 µM (active); in [13], 0.293 µM (active).
